Results as given in US5098921A, “Nitro-substituted aromatic or hetero-aromatic compounds for use in cancer treatment” (National Research Development Corporation, priority 1987, dated 1992).
Where two headings read alike, the source gives them in different places.

How the values were obtained:
KHT tumour cells = assay: Survival of KHT tumour cells after sensitiser i.p. plus 10 Gy X-rays (KHT tumour implanted subcutaneously in C3H mice); assay type: in vivo
Method: In Table 2 comparison is made with 1-(2-nitro-1-imidazolyl)-3-(1-aziridino)-2-propanol (RSU-1069). All compounds were administered in phosphate buffered saline (PBS) at pH 7.4 except RB-6145 which was administered in PBS at pH 5.4.
The maximum does used was the maximum tolerated dose (MTD).

cells [1] = assay: Sensitisation of cells, C1.6 (drugs made up in PBS at pH 7.4); assay type: cell-based; conditions: drugs made up in PBS at pH 7.4 just before addition to cells
Description: ^(b) Drugs made up in PBS at pH 7.4 just before addition to cells.

cells [2] = assay: Toxicity to cells, 3 hours at 37° C., in air and in N2; assay type: cell-based; conditions: for CC90: read-out: CN2; for CAir/CN2: ratio of toxic concentrations, air to N2, 180 min
Method: (§1) ^(a) Toxicity is 3 hours at 37° C. Concentrations are those
(§2) required for a surviving fraction of 10^-1. Drugs were made up in ful
(§3) growth medium (buffered with bicarbonate) just before addition to cells.

[3] = as above; assay type: cell-based; conditions: air; concentration required for a surviving fraction of 10^-1; 3 hours at 37° C.; full growth medium (bicarbonate); read-out: CAir
Method: as §1, §2, §3

KHT tumour = assay: In vivo sensitisation, scored against RSU1069 and MISO; parameters: species or system C3H mice; key to the marks not given beside the values; conditions: scoring system relative to RSU1069 and MISO
Method: (§4) (a) C3H mice in which the KHT tumour had been implanted subcutaneously were administered RB-6145 (Example 2) intraperitoneally before treatment with radiation. The time before such treatment at which the drug was administered was such that maximum enhancement was effected. The results of such treatment are set out in Table 1 with comparison to misonidazole (MISO), etanidazole (SR 2508) and pimonidazole (Ro 03-8799). In Table 2 comparison is made with 1-(2-nitro-1-imidazolyl)-3-(1-aziridino)-2-propanol (RSU-1069). All compounds were administered in phosphate buffered saline (PBS) at pH 7.4 except RB-6145 which was administered in PBS at pH 5.4.

[4] = Maximum tolerated dose (MTD); assay type: in vivo, C3H mice; conditions: for MTD: mouse, in vivo, ip, intraperitoneal, b203: maximum dose used was the MTD, read-out: maximum tolerated dose (MTD) = maximum dose used in Table 2
Method: as §4
The surviving fraction for 10 Gy alone is 3×10^-2. The maximum does used was the maximum tolerated dose (MTD).

[5] = Table 1, sensitiser at a dose of 200 mg/kg and 10 Gy X-rays, NONE = 1.0
[6] = Table 1, sensitiser at a dose of 200 mg/kg and 10 Gy X-rays, intraperitoneal
[7] = N2, concentration required for a surviving fraction of 10^-1, 3 hours at 37° C., full growth medium (bicarbonate)

Structure (SMILES)	EC (enhancement ratio 1.6) (cells [1])	CC90 (cells [2]; 3 h)	CAir/CN2 (cells [2])	CC90 at 3 h [3]	in vivo sensitisation (KHT tumour)	enhancement ratio (KHT tumour cells; [5])	surviving fraction (KHT tumour cells; [6])	also measured
COCC(O)Cn1ccnc1[N+](=O)[O-] (stereo not drawn) [MISO, misonidazole]	–	–	–	–	–	–	–	enhancement ratio (KHT tumour cells; mouse, in vivo, 200 mg/kg): 1.5; surviving fraction (KHT tumour cells; mouse, in vivo, ip, 200 mg/kg): 1.2 × 10^-2
O=[N+]([O-])c1nccn1CC(O)CNCCCl (stereo not drawn) [RB-6144, 1-(2-Nitro-1-imidazolyl)-3-(2-chloroethylamino)-2-propanol]	250 µM	350 µM	15	5000 µM	++	–	–	–
O=[N+]([O-])c1nccn1CC(O)CNCCBr (stereo not drawn) [RB-6145, 1-(2-Nitro-1-imidazolyl)-3-(2-bromoethylamino)-2-propanol]	150 µM	90 µM	25	2300 µM	++++	2.7	1.8 × 10^-3	doses that can be used compared with RSU-1069 ([4]; Table 2): Much higher doses of RB-6145 can be used; MTD [4]: 300 mg/kg; dose-for-dose sensitisation compared with RSU-1069 (KHT tumour cells; 10 Gy X-rays): on a dose-for-dose basis it is the same as RSU-1069 as a sensitiser; surviving fraction (KHT tumour cells; Table 2, RB-6145 0.13 mmol kg^-1 (50 mg/kg) and 10 Gy X-rays): 7.6 × 10^-3; surviving fraction (KHT tumour cells; Table 2, RB-6145 0.27 mmol kg^-1 (100 mg/kg) and 10 Gy X-rays): 5.2 × 10^-3; surviving fraction (KHT tumour cells; Table 2, RB-6145 0.53 mmol kg^-1 (200 mg/kg) and 10 Gy X-rays): 1.8 × 10^-3; surviving fraction (KHT tumour cells; Table 2, RB-6145 0.80 mmol kg^-1 (300 mg/kg) and 10 Gy X-rays, 10 Gy alone 3×10^-2): 1.4 × 10^-3
O=[N+]([O-])c1nccn1CC(O)CNCCI (stereo not drawn) [RB-6146, 1-(2-Nitro-1-imidazolyl)-3-(2-iodoethylamino)-2-propanol]	300 µM	80 µM	30	2400 µM	–	–	–	–
O=[N+]([O-])c1nccn1CC(O)CNCCF (stereo not drawn) [RB-6159, 1-(2-Nitro-1-imidazolyl)-3-(2-fluoroethylamino)-2-propanol]	–	–	14	35000 µM	–	–	–	CC90 (cells [2]; [7]): 2500 µM
O=[N+]([O-])c1nccn1CC(O)CN1CC1 (stereo not drawn) [RSU-1069, 1-(2-nitro-1-imidazolyl)-3-(1-aziridino)-2-propanol]	–	–	–	–	–	–	–	MTD [4]: 80 mg/kg; surviving fraction (KHT tumour cells; 8 mg/kg): 7.6 × 10^-3; surviving fraction (KHT tumour cells; 30 mg/kg): 4.0 × 10^-3; surviving fraction (KHT tumour cells; 50 mg/kg): 3.2 × 10^-3; surviving fraction (KHT tumour cells; 80 mg/kg): 1.6 × 10^-3
O=[N+]([O-])c1nccn1CC(O)CNCCO (stereo not drawn) [RSU-1137, 1-(2-nitro-1-imidazolyl)-3-(2-hydroxyethylamino)-2-propanol, reference compound]	450 µM	–	20	70000 µM	++	–	–	CC90 (cells [2]; [7]): 3500 µM
O=[N+]([O-])c1nccn1CC(O)CN1CCCCC1 (stereo not drawn) [Ro03-8799, pimonidazole]	–	–	–	–	–	1.0	3 × 10^-2	–
O=C(Cn1ccnc1[N+](=O)[O-])NCCO [SR 2508, etanidazole]	–	–	–	–	–	1.6	1.1 × 10^-2	–
